Test system: hypertensive subjects
Experiment: Example 4 dose-ranging study: automated office blood pressure (AOBP)
Format: in vivo, human
Conditions: for Change in AOBP BPdias, Mean (sem) / Change in AOBP BPsys, Mean (sem): Week 8, Full Analysis Set
Experimental: A randomized, double-blinded, placebo-controlled, dose-ranging, multicenter study was conducted to evaluate the effect of orally administered Compound A HBr on blood pressure for the treatment of hypertension in male and female subjects ≥18 years of age.
The study consists of two parts. For enrollment into Part 1 of the study, a subject's value of plasma renin activity (PRA) must be ≤1 ng/mL/h based on morning measurement. If the value of PRA >1 ng/mL/h based on morning measurement, then subjects may be eligible to enter Part 2 of the study.
For Part 1, 163 enrolled subjects ≥18 years of age were randomized into 6 equal treatment groups (1:1:1:1:1:1) to 12.5 mg BID, 25 mg BID, 12.5 mg QD, 50 mg QD, 100 mg QD, or placebo. After a review of interim clinical data, the 2 lowest dose levels (12.5 mg QD and 12.5 mg BID) were stopped for future randomization due to a lack of consistent meaningful reduction of blood pressure, but the patients randomized to that point remained in the study through completion. Thus, after the review of interim clinical data, subjects were randomized into 4 equal treatment groups (1:1:1:1) to 25 mg BID, 50 mg QD, 100 mg QD, or placebo.
For Part 2, 36 enrolled subjects ≥18 years of age were randomized (5:1) to either 100 mg QD Compound A HBr or placebo such that the Compound A HBr treatment group consisted of approximately 30 subjects and the placebo treatment group will consist of approximately 6 subjects.
Subjects orally administered the assigned study drug (Compound A HBr or placebo) according to the assigned dosing regimen for 8 weeks beginning on Study Day 1. All subjects in Part 1 (regardless of dosing group) received BID dosing to preserve the integrity of the blind; active drug is administered as the morning dose for all QD dose groups. Subjects returned to the research facility or were seen by the clinical investigator or approved home health care professional at the end of Study Weeks 1, 2, 3, 4, 5, 6, 7, and 8 (±2 days) for protocol-defined efficacy and safety assessments and procedures, assessment of adverse events (AEs), and confirmation of compliance with study drug usage. Subjects also completed a telephone visit and blood pressure (BP) check at home approximately 3 days post last dose of study drug. Subjects attended up to 14 full clinic visits, including a pre-Screening visit, a Screening/start of Placebo Run-in visit, a second visit during Placebo Run-in, a clinic visit to initiate the ABPM procedure, a Randomization visit, 8 weekly visits during double-blind treatment, and an end-of-study visit scheduled 4 weeks after the last study treatment for final efficacy and safety assessments.
An automated oscillometric sphygmomanometer device was used to measure the subjects' systolic and diastolic blood pressure in office after approximately 5 minutes of rest in the seated position.
The primary endpoint is the change in office-measured (mean of last 2 of 5 unattended measurements using an automated oscillometric sphygmomanometer device after approximately 5 minutes of rest in the seated position) systolic blood pressure (SBP) from baseline to the end of Study Week 8.

[1] = pooled 50 mg QD, 100 mg QD, 12.5 mg BID and 25 mg BID cohorts (N=103)

SMILES: CC(=O)N[C@H]1CC[C@H](NC(=O)CN2CCN(c3nncc(-c4ccc(C)cc4)n3)CC2)CC1 [Compound A HBr]
- reduction in AOBP systolic BP, placebo-corrected, Full-analysis set (100 mg, Part-1 and Part-2 (interim) combined, N=58 active): −9.9 mmHg
- Difference from placebo in blood pressure change (LS modeled mean) (Age 65-79, 12.5 mg BID): −1.5 (13)
- Difference from placebo in blood pressure change (LS modeled mean) (Age 65-79, 12.5 mg QD): 1.1 (10)
- Difference from placebo in blood pressure change (LS modeled mean) (Age 65-79, 25 mg BID): −2.4 (15)
- Difference from placebo in blood pressure change (LS modeled mean) (Age 65-79, 50 mg QD): −8.8 (13)
- Difference from placebo in blood pressure change (LS modeled mean) (Age 65-79, 100 mg QD): −1.6 (18)
- Difference from placebo in blood pressure change (LS modeled mean) (Age <65, 12.5 mg BID): −5.4 (6)
- Difference from placebo in blood pressure change (LS modeled mean) (Age <65, 12.5 mg QD): −0.3 (10)
- Difference from placebo in blood pressure change (LS modeled mean) (Age <65, 25 mg BID): −8.5 (13)
- Difference from placebo in blood pressure change (LS modeled mean) (Age <65, 50 mg QD): −10.2 (13)
- Difference from placebo in blood pressure change (LS modeled mean) (Age <65, 100 mg QD): −15.7 (8)
- Difference from placebo in blood pressure change (LS modeled mean) (Background hypertension therapy 2 medications, 12.5 mg BID): −1.2 (7)
- Difference from placebo in blood pressure change (LS modeled mean) (Background hypertension therapy 2 medications, 12.5 mg QD): 1.8 (14)
- Difference from placebo in blood pressure change (LS modeled mean) (Background hypertension therapy 2 medications, 25 mg BID): 1.4 (14)
- Difference from placebo in blood pressure change (LS modeled mean) (Background hypertension therapy 2 medications, 50 mg QD): −3.7 (20)
- Difference from placebo in blood pressure change (LS modeled mean) (Background hypertension therapy 2 medications, 100 mg QD): −7.5 (14)
- Difference from placebo in blood pressure change (LS modeled mean) (Background hypertension therapy 3+ medications, 12.5 mg BID, * p < 0.05): −12.2* (15)
- Difference from placebo in blood pressure change (LS modeled mean) (Background hypertension therapy 3+ medications, 12.5 mg QD): −6.0 (9)
- Difference from placebo in blood pressure change (LS modeled mean) (Background hypertension therapy 3+ medications, 25 mg BID, * p < 0.05): −15.8* (16)
- Difference from placebo in blood pressure change (LS modeled mean) (Background hypertension therapy 3+ medications, 50 mg QD, * p < 0.05): −19.1* (8)
- Difference from placebo in blood pressure change (LS modeled mean) (Background hypertension therapy 3+ medications, 100 mg QD): −9.6 (16)
- Difference from placebo in blood pressure change (LS modeled mean) (Baseline BPsys High tertile, 12.5 mg BID): −9.7
- Difference from placebo in blood pressure change (LS modeled mean) (Baseline BPsys High tertile, 12.5 mg QD): −3.6
- Difference from placebo in blood pressure change (LS modeled mean) (Baseline BPsys High tertile, 25 mg BID): −5.6
- Difference from placebo in blood pressure change (LS modeled mean) (Baseline BPsys High tertile, 50 mg QD, * p < 0.05): −20.6*
- Difference from placebo in blood pressure change (LS modeled mean) (Baseline BPsys High tertile, 100 mg QD): −9.7
- Difference from placebo in blood pressure change (LS modeled mean) (Baseline BPsys Low tertile, 12.5 mg BID): 3.8
- Difference from placebo in blood pressure change (LS modeled mean) (Baseline BPsys Low tertile, 12.5 mg QD): −10.7
- Difference from placebo in blood pressure change (LS modeled mean) (Baseline BPsys Low tertile, 25 mg BID): −8.8
- Difference from placebo in blood pressure change (LS modeled mean) (Baseline BPsys Low tertile, 50 mg QD): −8.3
- Difference from placebo in blood pressure change (LS modeled mean) (Baseline BPsys Low tertile, 100 mg QD): −11.8
- Difference from placebo in blood pressure change (LS modeled mean) (Baseline BPsys Middle tertile, 12.5 mg BID): −9.7
- Difference from placebo in blood pressure change (LS modeled mean) (Baseline BPsys Middle tertile, 12.5 mg QD): 9.3
- Difference from placebo in blood pressure change (LS modeled mean) (Baseline BPsys Middle tertile, 25 mg BID): −4.0
- Difference from placebo in blood pressure change (LS modeled mean) (Baseline BPsys Middle tertile, 50 mg QD): −11.9
- Difference from placebo in blood pressure change (LS modeled mean) (Baseline BPsys Middle tertile, 100 mg QD): −11.8
- Difference from placebo in blood pressure change (LS modeled mean) (Gender Female, 12.5 mg BID): −3.79 (14)
- Difference from placebo in blood pressure change (LS modeled mean) (Gender Female, 12.5 mg QD): −0.2 (12)
- Difference from placebo in blood pressure change (LS modeled mean) (Gender Female, 25 mg BID): −5.18 (19)
- Difference from placebo in blood pressure change (LS modeled mean) (Gender Female, 50 mg QD): −11.3 (15)
- Difference from placebo in blood pressure change (LS modeled mean) (Gender Female, 100 mg QD): −5.1 (18)
- Difference from placebo in blood pressure change (LS modeled mean) (Gender Male, 12.5 mg BID): −13.8 (8)
- Difference from placebo in blood pressure change (LS modeled mean) (Gender Male, 12.5 mg QD): −2.3 (11)
- Difference from placebo in blood pressure change (LS modeled mean) (Gender Male, 25 mg BID): −9.5 (11)
- Difference from placebo in blood pressure change (LS modeled mean) (Gender Male, 50 mg QD): −8.3 (13)
- Difference from placebo in blood pressure change (LS modeled mean) (Gender Male, 100 mg QD): −12.4 (12)
- reduction in AOBP systolic BP, per-protocol, placebo-corrected (Part-1 100 mg cohort): −10.3 mmHg
- Difference from placebo in blood pressure change (LS modeled mean) (Race Black, 12.5 mg BID): 5.57 (7)
- Difference from placebo in blood pressure change (LS modeled mean) (Race Black, 12.5 mg QD): 6.75 (11)
- Difference from placebo in blood pressure change (LS modeled mean) (Race Black, 25 mg BID): −10.1 (7)
- Difference from placebo in blood pressure change (LS modeled mean) (Race Black, 50 mg QD): −6.9 (8)
- Difference from placebo in blood pressure change (LS modeled mean) (Race Black, 100 mg QD): −7.0 (15)
- Difference from placebo in blood pressure change (LS modeled mean) (Race Other, 12.5 mg BID): −14.7 (15)
- Difference from placebo in blood pressure change (LS modeled mean) (Race Other, 12.5 mg QD): −7.5 (12)
- Difference from placebo in blood pressure change (LS modeled mean) (Race Other, 25 mg BID): −7.2 (23)
- Difference from placebo in blood pressure change (LS modeled mean) (Race Other, 50 mg QD): −12.1 (20)
- Difference from placebo in blood pressure change (LS modeled mean) (Race Other, 100 mg QD): −9.2 (15)
- Change in AOBP BPdias, Mean (sem) (12.5 mg BID): −6.1 (1.8) mmHg
- Change in AOBP BPsys, Mean (sem) (12.5 mg BID): −11.3 (3.1) mmHg
- Change in AOBP BPdias, Mean (sem) (12.5 mg QD): −6.1 (1.8) mmHg
- Change in AOBP BPsys, Mean (sem) (12.5 mg QD): −5.7 (3.1) mmHg
- Change in AOBP BPdias, Mean (sem) (25 mg BID): −3.83 (2.1) mmHg
- Change in AOBP BPsys, Mean (sem) (25 mg BID): −11.0 (2.6) mmHg
- Change in AOBP BPdias, Mean (sem) (50 mg QD): −8.1 (1.7) mmHg
- Change in AOBP BPsys, Mean (sem) (50 mg QD): −13.9 (2.6) mmHg
- Change in AOBP BPdias, Mean (sem) (100 mg QD): −4.76 (1.5) mmHg
- Change in AOBP BPsys, Mean (sem) (100 mg QD): −12.2 (2.7) mmHg
- mean reduction in AOBP measured systolic BP (doses of 50 mg and 100 mg QD): −11 to −13 mmHg
- subjects with a change in BPsys >−15 mmHg [1]: 41%
- subjects with a change in BPsys >−25 mmHg [1]: 25%
- subjects who achieved >−23 mmHg fall in systolic blood pressure (week 8, pooled 50 mg QD, 100 mg QD, 12.5 mg BID, 25 mg BID cohorts): 25%
- mean reduction in systolic blood pressure in the highest response quartile (week 8, pooled cohorts): −33.4+1.5 mmgHg
- subjects who achieved a ≥15 mmHg fall in systolic blood pressure (week 8, pooled cohorts): 41%
